The test system of data set [1] is sixteen clinical Mab isolates. Nature of the data set: 24-hour bactericidal activity assay, summary over isolates. The settings on record: majority of the tested strains (10/16 isolates); equivalent of <50 μg/ml. Type of data set: cell-based, Mycobacterium abscessus. On the procedure:
(§1) Briefly, serial dilutions of the AMPs were prepared with potassium phosphate buffer (PPB) from the concentration range of 3.125 to 400 μg/ml and then 50 μl of each dilution were added to each 96-well plate. Colonies of the isolate were suspended and then further diluted in Mueller-Hinton broth to obtain a final concentration of 1×10^3 CFU/ml (optimized according to the available AMP stock concentration). Fifty microliters of this inoculum were added to each well of the plates. The plates were incubated for 3 days at 37°C. Plain media and bacterial suspensions without AMPs were used as negative and positive controls. The MIC values were read and recorded. All assays were performed in duplicate and two independent experiments.
Potential AMPs from the screening assays were subjected to determine the 24-hour bactericidal activity assays (corresponding to the common time of administration) with sixteen clinical Mab isolates using the protocol as described above. To observe the early antimicrobial activities, the plates were incubated for 24 h at 37°C. The samples from each well were further diluted in 0.05% Tween 80 and inoculated on Mueller-Hinton agar. After incubation for 3 days at 37°C, the colony-forming units (CFUs) were counted and calculated for the percentage of killing using the following formula: % killing = 1 - (CFU sample/ CFU control) ×100.

The subject of data set [2] is human red blood cells (RBCs). Nature of the data set: Hemolytic toxicity test. Type of data set: cell-based. The settings on record: for Hemolytic activities (%hemolysis): human RBCs, 1 h at 37°C, mean±SD of duplicates, two independent experiments. The protocol:
For the hemolytic toxicity test, red blood cells (RBCs) from fresh blood samples of healthy volunteers were obtained by centrifugation at 1,000 rpm for 5 min. The cells were washed three times with sterile phosphate buffered saline (PBS) and adjusted into 1×10^8 cells/ml. AMPs were diluted with PPB in ranging from 6.25 to 400 μg/ml. Fifty microliters of the RBC suspensions and 50 μl of AMP solutions were added to 1.5 ml sterile microtubes, incubated for 1 h at 37°C and then centrifuged at 1,000 rpm for 5 min. The supernatants were transferred to new 96-well microtiter plates for measurement of the absorbance at 540 nm using a microplate reader. RBC suspensions treated with 2% (v/v) Triton X-100 and PBS solution were used as positive and negative controls. The percentages of hemolysis were calculated using the following formula: % of RBC lysis = 100 × [(Test—PBS) / (Positive control—PBS)]. All assays were performed in duplicate and two independent experiments.

Data set [3] deals with M. abscessus clinical isolate MAB15. In words: In vitro antimicrobial susceptibility of potential AMPs, broth microdilution, 3 days. Format: cell-based, M. abscessus subsp. massiliense. The settings on record: 3 days at 37°C. On the procedure: as §1
(§2) For the in vitro antimicrobial susceptibility, the same protocol as described above was used. The culture plates were further incubated up to 3 days at 37°C. The MIC values were read and recorded.
On the technique in general: Dilution methods test growth across graded concentrations, often in twofold steps.

Data set [4] concerns M. abscessus clinical isolate MAB16. The description is as above. The settings on record: 3 days at 37°C. Format: cell-based, M. abscessus subsp. massiliense. On the procedure: as §1, §2
Experiment in data set [5]: not given
The source holds these as a separate data set.

Data set [6] relates to M. abscessus clinical isolate MAB15. In words: In vitro susceptibility testing (DST), CLSI broth microdilution. Format: cell-based, M. abscessus subsp. massiliense. The settings on record: for MIC: Mycobacteroides abscessus. The arrangement: key to DST profile, interpretation, Day 3 / DST profile, interpretation, Day 5 / DST profile, interpretation, Day 14: S, susceptible; I, intermediate; R, resistant. The protocol:
(§3) Drug susceptibility testing (DST) was performed according to the Clinical and Laboratory Standards Institute (CLSI) guidelines M24-A2 [42] using the broth microdilution method to determine the minimum inhibitory concentration (MIC). […] Colonies were grown at an adjusted cell density to a 0.5 McFarland standard and further diluted to 5×10^5 CFU/ml. […] These were then incubated at 37°C for 3, 5 and 14 days. The MIC was defined as the concentration in which no visible growth was observed. The results were interpreted according to the guidelines of CLSI. Inducible resistance was inferred by changes in MIC values from being susceptible at day 3 to resistant at day 14.

Data set [7] has as its system M. abscessus clinical isolate MAB12. The data set is described as above. Type of data set: cell-based, M. abscessus subsp. massiliense. More on the design: key to DST profile, interpretation, Day 3 / DST profile, interpretation, Day 5 / DST profile, interpretation, Day 14: S, susceptible; I, intermediate; R, resistant. The settings on record: for MIC: Mycobacteroides abscessus. On the procedure:
as §3

Data set [8] has as its system M. abscessus clinical isolate MAB16. The data set is described as above. The settings on record: for MIC: Mycobacteroides abscessus. Format: cell-based, M. abscessus subsp. massiliense. More on the design: key to DST profile, interpretation, Day 3 / DST profile, interpretation, Day 5 / DST profile, interpretation, Day 14: S, susceptible; I, intermediate; R, resistant. The protocol: as §3

The subject of data set [9] is M. abscessus clinical isolate MAB13. Described as above. The settings on record: for MIC: Mycobacteroides abscessus. Format: cell-based, M. abscessus subsp. massiliense. More on the design: key to DST profile, interpretation, Day 3 / DST profile, interpretation, Day 5 / DST profile, interpretation, Day 14: S, susceptible; I, intermediate; R, resistant. On the procedure: as §3

Data set [10] has as its system M. abscessus clinical isolate MAB14. Described as above. Type of data set: cell-based, M. abscessus subsp. massiliense. The arrangement: key to DST profile, interpretation, Day 3 / DST profile, interpretation, Day 5 / DST profile, interpretation, Day 14: S, susceptible; I, intermediate; R, resistant. The settings on record: for MIC: Mycobacteroides abscessus. On the procedure:
as §3

[11] abbreviates: 72 h, day 3, read-out: DST profile, MIC value, Day 3.
Setting [12] is: 120 h, day 5, read-out: DST profile, MIC value, Day 5.
Setting [13] is: 336 h, day 14, read-out: DST profile, MIC value, Day 14.

The structures appear in SMILES notation. In brackets after ≈: the same amount, converted by molar mass. Like-named read-outs stand apart in the source and are kept apart here. Where a SMILES comes first, the peptide text is derived from it.

Regarding `CC[C@H](C)[C@H](NC(=O)[C@H](CCCCN)NC(=O)[C@H](CCCNC(=N)N)NC(=O)CNC(=O)[C@H](CC(C)C)NC(=O)[C@H](CO)NC(=O)[C@H](CCCNC(=N)N)NC(=O)[C@H](CC(C)C)NC(=O)CNC(=O)CN)C(=O)N[C@@H](CC(C)C)C(=O)N[C@@H](CCCNC(=N)N)C(=O)N[C@@H](C)C(=O)N[C@@H](Cc1c[nH]c2ccccc12)C(=O)N[C@@H](CCCCN)C(=O)O` [S63] (H-GGLRSLGRKILRAWK-OH), the “MIC with ~99% killed within 24 h” value in [1] was < 29.22 µM. For the same molecule, the “Hemolytic activities (%hemolysis)” value in data set [2] (6.25 µg/mL) is on record as -0.53±0.75%; in data set [2] (12.5 µg/mL), 3.52±4.98%; in [2] (25 µg/mL), 5.81±3.73%; in data set [2] (50 µg/mL), 7.04±3.98%; in data set [2] (100 µg/mL) it was 8.27±3.73%; in data set [2] (200 µg/mL), 9.68±2.74%. Further, the “Hemolytic activities (%hemolysis)” value in data set [2] (400 µg/mL) is 10.56±1.99%. Further, the “hemolysis at the MICs level” value in data set [2] (at the MICs level, single figure of the abstract) was 1.50%. In addition, the “Antimicrobial peptides against M. abscessus isolates, MIC value” (shortened to “Antimicrobial peptides”) in data set [3] and in data set [4] was >400 µg/mL each time.
Take `CC[C@H](C)[C@H](NC(=O)[C@H](CCCCN)NC(=O)[C@H](CCCNC(=N)N)NC(=O)CNC(=O)[C@H](CC(C)C)NC(=O)[C@H](CO)NC(=O)[C@H](CCCNC(=N)N)NC(=O)[C@H](CC(C)C)NC(=O)CNC(=O)CN)C(=O)N[C@@H](CC(C)C)C(=O)N[C@@H](CCCNC(=N)N)C(=O)N[C@@H](C)C(=O)N[C@@H](Cc1c[nH]c2ccccc12)C(=O)N[C@@H](CCCCN)C(=O)N[C@@H](CCCCN)C(=O)N[C@@H](Cc1ccc(O)cc1)C(=O)O` [S61] (H-GGLRSLGRKILRAWKKY-OH): the MIC after 3 days, MAB01 and MAB03 was < 50 µg/mL. In data set [5], the MIC within 24 h, majority of isolates (10/16) was < 50 µg/mL. Moreover, the “MIC with ~99% killed within 24 h, in μM” value in [1] is listed as “less than 24.97 μM”. For the same molecule, the “Hemolytic activities (%hemolysis)” value in [2] (6.25 µg/mL) was -0.18±0.75%. Also, the “Hemolytic activities (%hemolysis)” value in data set [2] (12.5 µg/mL) was 4.58±4.48%. For the same molecule, the “Hemolytic activities (%hemolysis)” value in [2] (25 µg/mL) came out at 6.34±4.98%. Moreover, the “Hemolytic activities (%hemolysis)” value in data set [2] (50 µg/mL) turned out to be 9.15±1.99%. Also, the “Hemolytic activities (%hemolysis)” value in data set [2] (100 µg/mL) worked out at 10.74±0.75%. In addition, the “Hemolytic activities (%hemolysis)” value in [2] (200 µg/mL) is on record as 11.44±0.25%. The “Hemolytic activities (%hemolysis)” value in data set [2] (400 µg/mL) came to 13.03±0.00%. For the same molecule, in [3], the “Antimicrobial peptides” value was >400 µg/mL. The “Antimicrobial peptides” value in [4] is >400 µg/mL.
Regarding `CC[C@H]1OC(=O)[C@H](C)[C@@H](O[C@H]2C[C@@](C)(OC)[C@@H](O)[C@H](C)O2)[C@H](C)[C@@H](O[C@@H]2O[C@H](C)C[C@H](N(C)C)[C@H]2O)[C@](C)(OC)C[C@@H](C)C(=O)[C@H](C)[C@@H](O)[C@]1(C)O` [CLA, Clarithromycin], the MIC (in general, the lowest concentration that inhibits growth of the organism) in data set [6] (setting [11]) came to 4 µg/mL (≈ 5.35 µM); in data set [6] (setting [12]), 4 µg/mL (≈ 5.35 µM); in data set [6] (setting [13]), 4 µg/mL (≈ 5.35 µM); in data set [7] (setting [11]), 1020 µg/mL (≈ 1370 µM); in [7] (setting [12]), 1020 µg/mL (≈ 1370 µM); in [7] (setting [13]), 1020 µg/mL (≈ 1370 µM). In addition, the MIC was found to be 0.2 µg/mL (≈ 0.267 µM) in [8] (setting [11]); 2 µg/mL (≈ 2.67 µM) in data set [8] (setting [12]); 2 µg/mL (≈ 2.67 µM) in [8] (setting [13]); 8 µg/mL (≈ 10.7 µM) in [9] (setting [11]); 32 µg/mL (≈ 42.8 µM) in data set [9] (setting [12]); 32 µg/mL (≈ 42.8 µM) in data set [9] (setting [13]). The MIC in data set [10] (setting [11]), in [10] (setting [12]) and in data set [10] (setting [13]) was 512 µg/mL (≈ 685 µM) each time. For the same molecule, the “DST profile, interpretation, Day 3” value is listed as “I” in [6] (day 3, CLSI interpretation); “R” in [7] (day 3, CLSI interpretation); “S” in [8] (day 3, CLSI interpretation); “R” in [9] (day 3, CLSI interpretation); “R” in data set [10] (day 3, CLSI interpretation). The “DST profile, interpretation, Day 5” value in [6] (day 5, CLSI interpretation) was “I”; in data set [7] (day 5, CLSI interpretation), “R”; in [8] (day 5, CLSI interpretation), “S”; in data set [9] (day 5, CLSI interpretation), “R”; in data set [10] (day 5, CLSI interpretation) it was “R”. Further, the “DST profile, interpretation, Day 14” value in data set [6] (day 14, CLSI interpretation) was “I”; in data set [7] (day 14, CLSI interpretation) it was “R”; in [8] (day 14, CLSI interpretation) it was “S”; in data set [9] (day 14, CLSI interpretation), “R”; in data set [10] (day 14, CLSI interpretation) it was “R”.

These data come from PMC8592419 (PLoS ONE, 2021).
